Like-named read-outs stand apart in the source and are kept apart here.
Assays:
[1] = molecular target: T1, Ascaris suum succinate-ubiquinone reductase (mitochondrial complex II) (Ascaris suum, UniProt O44074+P92506+P92507); experiment: In vitro inhibitory activity on Ascaris suum succinate-ubiquinone reductase (mitochondrial complex II); assay type: biochemical
T1 construct: from tissue; host or cells: mitochondria from adult Ascaris suum muscle
Procedure: In Vitro Measurement of Inhibitory Activity on Ascaris suum Succinate-Ubiquinone Reductase (Mitochondrial Complex II)
To a solution containing 50 mM potassium phosphate (pH 7.4) and 0.1% (w/v) sucrose monolaurate, an electron acceptor ubiquinone-2 (UQ2) was added at a final concentration of 60 μM, and the mixture was allowed to stand at 25° C. for 20 minutes. To this, potassium cyanide (final concentration: 2 mM) and mitochondria prepared from adult Ascaris suum muscle were added, and thorough mixing was done. To aliquots of the mixture, an inhibitor to be tested was added at various concentrations, and the mixtures were allowed to stand at 25° C. for 3 minutes. The enzymatic reaction was initiated by addition of potassium succinate (final concentration: 10 mM).

[2] = tested on: Haemonchus contortus L1-stage larvae; experiment: In vivo activity test on Haemonchus nematode (motor ability of L1-stage larvae, 96-well plate); settings: twenty L1-stage larvae per well, 27° C./95% RH for 4 days, DMSO 0.78% (v/v)
Procedure: In Vivo Activity Test on Haemonchus Nematode
In a 96-well plate, twenty L1-stage larvae (Haemonchus contortus) per well were maintained so that they could freely move, and solutions of compounds of the present invention dissolved at predetermined concentrations in DMSO (the final concentration of DMSO was 0.78% (v/v)) were added at 0.5 μl/well each. The plate was kept under the conditions of 27° C./95% RH for 4 days. The motor ability of the larvae was examined and the concentration required for 50% inhibition of the motor ability (EC50) was determined. Based on the EC50 value, the activity against the Haemonchus nematode was graded according to the criterion shown below.
• A: The EC50 value is lower than 0.5 ppm. • B: The EC50 value is 0.5 ppm or higher but lower than 5 ppm. • C: The EC50 value is 5 ppm or higher.

[3] = mitochondria from adult Ascaris suum muscle, UQ2 60 μM, potassium succinate 10 mM, 25° C., absorbance at 278 nm, read-out: Ascaris suum IC50 value (A)

T1 sequence (O44074 22-282): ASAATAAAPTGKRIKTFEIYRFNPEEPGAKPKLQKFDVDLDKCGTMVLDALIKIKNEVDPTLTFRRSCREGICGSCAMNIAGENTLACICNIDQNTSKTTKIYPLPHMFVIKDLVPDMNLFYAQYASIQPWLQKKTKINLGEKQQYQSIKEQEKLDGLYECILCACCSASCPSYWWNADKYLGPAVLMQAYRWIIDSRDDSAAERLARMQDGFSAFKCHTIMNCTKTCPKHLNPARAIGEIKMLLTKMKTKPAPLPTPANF
T1 sequence (P92506 32-188): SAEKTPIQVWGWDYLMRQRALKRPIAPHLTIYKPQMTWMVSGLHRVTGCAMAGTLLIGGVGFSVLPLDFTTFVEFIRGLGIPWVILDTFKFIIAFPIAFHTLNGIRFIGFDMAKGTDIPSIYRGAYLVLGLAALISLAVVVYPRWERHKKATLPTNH
T1 sequence (P92507 26-156): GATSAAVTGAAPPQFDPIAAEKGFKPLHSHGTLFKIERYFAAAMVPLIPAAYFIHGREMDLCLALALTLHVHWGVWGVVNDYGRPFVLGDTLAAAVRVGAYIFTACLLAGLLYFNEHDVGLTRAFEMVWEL
T1 sequence (Q33862 19-645 partner): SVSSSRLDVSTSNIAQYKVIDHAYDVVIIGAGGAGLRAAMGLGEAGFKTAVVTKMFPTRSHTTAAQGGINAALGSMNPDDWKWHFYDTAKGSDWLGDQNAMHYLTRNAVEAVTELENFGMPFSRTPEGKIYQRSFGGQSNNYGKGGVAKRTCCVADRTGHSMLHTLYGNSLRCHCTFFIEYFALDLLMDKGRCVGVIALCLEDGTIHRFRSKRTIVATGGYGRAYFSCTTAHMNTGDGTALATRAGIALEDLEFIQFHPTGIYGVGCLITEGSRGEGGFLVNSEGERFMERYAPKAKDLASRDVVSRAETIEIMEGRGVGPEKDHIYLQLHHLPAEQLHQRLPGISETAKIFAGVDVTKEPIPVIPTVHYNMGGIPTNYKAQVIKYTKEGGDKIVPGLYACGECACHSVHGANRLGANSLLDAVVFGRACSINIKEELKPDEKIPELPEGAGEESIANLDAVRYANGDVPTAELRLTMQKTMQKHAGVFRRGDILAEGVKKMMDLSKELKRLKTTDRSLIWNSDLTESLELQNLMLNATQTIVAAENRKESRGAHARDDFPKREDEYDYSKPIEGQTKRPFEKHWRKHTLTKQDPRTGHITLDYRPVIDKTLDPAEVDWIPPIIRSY

| SMILES | IC50 [1, 3] [nM] | Grade (EC50, concentration required for 50% inhibition of the motor ability) [2] | IC50 [1] [nM] |
| --- | --- | --- | --- |
| O=C(NCCc1ncc(C(F)(F)F)cc1Cl)c1cccnc1Cl [Compound 1] | 47 | A (The EC50 value is lower than 0.5 ppm.) |  |
| Nc1nc(C(F)(F)F)c(C(=O)NCCc2ccc(Cl)cc2Cl)s1 [Compound 2] | 57 |  |  |
| O=C(NCCc1ncc(C(F)(F)F)cc1Cl)c1nccnc1C(F)(F)F [Compound 3] | 9.4 | A (The EC50 value is lower than 0.5 ppm.) |  |
| O=C(NCCc1ccc(-c2ccc(OC(F)(F)F)cc2)cc1Cl)c1nccnc1C(F)(F)F [Compound 4] | 1.3 |  |  |
| Cc1nccnc1C(=O)NCCc1ccc(-c2ccc(OC(F)(F)F)cc2)cc1 [Compound 5] | 26 |  |  |
| O=C(NCCc1ccc(Cl)cc1Cl)c1cccnc1C(F)(F)F [Compound 6] | 4.4 | A (The EC50 value is lower than 0.5 ppm.) |  |
| O=C(NCCc1ccc(Cl)cc1Cl)c1sccc1C(F)(F)F [Compound 7] | 1.1 | A (The EC50 value is lower than 0.5 ppm.) |  |
| O=C(NCCc1ccc(Cl)cc1Cl)c1nccnc1C(F)(F)F [Compound 9] |  | A (The EC50 value is lower than 0.5 ppm.) |  |
| O=C(NCCc1ccc(F)cc1Cl)c1nccnc1C(F)(F)F [Compound 11] | 3.4 |  |  |
| O=C(NCC1(c2ccc(Cl)cc2Cl)CC1)c1nccnc1Cl [Compound 13] | 2.7 | A (The EC50 value is lower than 0.5 ppm.) |  |
| CC(Cc1ccc(Cl)cc1Cl)NC(=O)c1nccnc1Cl (stereo not drawn) [Compound 14] | 3.3 |  |  |
| CC(Cc1ccc(Cl)cc1Cl)NC(=O)c1nccnc1C(F)(F)F (stereo not drawn) [Compound 15] |  | A (The EC50 value is lower than 0.5 ppm.) |  |
| O=C(NCC1(c2ccc(Cl)cc2Cl)CC1)c1nccnc1C(F)(F)F [Compound 16] | 1.5 | A (The EC50 value is lower than 0.5 ppm.) |  |
| O=C(NCCc1ccc(-c2ccc(OC(F)(F)F)cc2)cc1F)c1nccnc1Cl [Compound 17] |  | A (The EC50 value is lower than 0.5 ppm.) | 2 |
| O=C(NC1(Cc2ccc(Cl)cc2Cl)CC1)c1nccnc1C(F)(F)F [Compound 18] | 3.1 |  |  |
| O=C(NCCc1ccc(C(F)(F)F)cc1Cl)c1nccnc1C(F)(F)F [Compound 19] | 1.3 | A (The EC50 value is lower than 0.5 ppm.) |  |
| O=C(NCCc1ccc(Cl)cc1F)c1nccnc1C(F)(F)F [Compound 20] | 4.9 |  |  |
| O=C(NCCc1ccc(Oc2ncc(C(F)(F)F)cc2Cl)cc1Cl)c1nccnc1C(F)(F)F [Compound 21] | 1.3 | A (The EC50 value is lower than 0.5 ppm.) |  |
| O=C(NCCc1ccc(Oc2ncc(C(F)(F)F)cc2Cl)cc1Cl)c1cccnc1Cl [Compound 22] | 1.7 | A (The EC50 value is lower than 0.5 ppm.) |  |
| CC(Cc1ccc(Cl)cc1F)NC(=O)c1nccnc1Cl (stereo not drawn) [Compound 23] | 10 | A (The EC50 value is lower than 0.5 ppm.) |  |

| SMILES | IC50 [1, 3] [nM] | Grade (EC50, concentration required for 50% inhibition of the motor ability) [2] | IC50 [1] [nM] |
| --- | --- | --- | --- |
| O=C(NCCc1cc(F)c(Cl)cc1F)c1nccnc1C(F)(F)F [Compound 24] | 2 | A (The EC50 value is lower than 0.5 ppm.) |  |
| O=C(NCCc1cc(F)c(Cl)cc1F)c1cccnc1Cl [Compound 25] | 18 | A (The EC50 value is lower than 0.5 ppm.) |  |
| CC(Cc1cc(F)c(F)cc1Cl)NC(=O)c1nccnc1C(F)(F)F (stereo not drawn) [Compound 26] | 2.9 |  |  |
| O=C(NCCc1cc(F)c(F)cc1Cl)c1nccnc1C(F)(F)F [Compound 27] | 2.2 |  |  |
| O=C(NCCc1cc(F)c(Cl)cc1Cl)c1nccnc1C(F)(F)F [Compound 28] | 1.3 | A (The EC50 value is lower than 0.5 ppm.) |  |
| O=C(NCCc1cc(F)c(Cl)cc1Cl)c1cccnc1Cl [Compound 29] | 6.7 |  |  |
| Cc1cccnc1C(=O)NCCc1ccc(Cl)cc1Cl [Compound 30] | 6 |  |  |
| O=C(NCCc1ccc(Cl)cc1Cl)c1cnccc1C(F)(F)F [Compound 31] | 42 |  |  |
| O=C(NCCc1ccc(Cl)cc1Cl)C1=C(C(F)(F)F)OCCS1 [Compound 33] |  | A (The EC50 value is lower than 0.5 ppm.) | 7.3 |
| Cc1c(C(=O)NCCc2ccc(Cl)cc2Cl)c(C(F)(F)F)nn1C [Compound 35] |  | B (The EC50 value is 0.5 ppm or higher but lower than 5 ppm.) |  |
| Cc1nc(C(F)(F)F)c(C(=O)NCCc2ccc(Cl)cc2Cl)s1 [Compound 38] |  | B (The EC50 value is 0.5 ppm or higher but lower than 5 ppm.) |  |
| C[C@@H](Cn1nc(Br)c(Br)c1Br)NC(=O)c1cccnc1Cl [Compound 41] | 42 |  |  |
| C[C@@H](Cn1nc(Br)c(Br)c1Br)NC(=O)c1cccnc1C(F)(F)F [Compound 42] | 13 |  |  |
| C[C@@H](Cn1nc(C(F)(F)F)c(Cl)c1Cl)NC(=O)c1nccnc1C(F)(F)F [Compound 43] | 9.9 |  |  |
| C[C@@H](COc1ncc(C(F)(F)F)cc1Cl)NC(=O)c1cccnc1Cl [Compound 44] | 20 |  |  |
| O=C(NCCc1ccc(Oc2ccc(C(F)(F)F)cn2)cc1Cl)c1cccnc1Cl [Compound 45] | 4.5 |  |  |
| CC(Cc1ccc(Cl)cc1Cl)NC(=O)c1nccnc1I (stereo not drawn) [Compound 47] |  |  | 2.3 |
| Cc1nccnc1C(=O)NCCc1ccc(-c2ccc(OC(F)(F)F)cc2)cc1 [Compound 48] |  | A (The EC50 value is lower than 0.5 ppm.) |  |
| Cc1occc1C(=O)NCCc1ccc(Cl)cc1Cl [Compound 50] | 1.6 |  |  |

From patent US9562034B2, “Endoparasite control agent” (The University of Tokyo, priority 2012, dated 2017)
